Test results: patent US20050124607A1, “5-Substituted quinazolinone compounds useful as alpha 1A/B adrenergic receptor antagonists” (priority 2003, published 2005)
Where a name gives a salt, the structure may show the parent alone.

Compound	melting point
COc1cc2[nH]c(N3CCN(C(=O)CCC(C)C)CC3)nc(=O)c2c(OC)c1OC.Cl	198 to 201 °C
COc1cc2[nH]c(N3CCc4c(cccc4C4=NCCN4C)C3)nc(=O)c2c(C)c1OC	246 to 250 °C
COc1cc2[nH]c(N3Cc4ccc(Cl)cc4C3)nc(=O)c2c(OC)c1OC.Cl	289 to 291 °C
COc1cc2[nH]c(N3CCN(C4=NCCN4c4cccc(F)c4)CC3)nc(=O)c2c(C)c1OC	257.9 to 260 °C
COc1cc2[nH]c(N3CCN(c4nccn4C)CC3)nc(=O)c2c(C)c1OC	263 to 264 °C
COc1cc2[nH]c(N3CCc4c(cccc4N=C4N(C)CCN4C)C3)nc(=O)c2c(OC)c1OC	215 to 217.5 °C
COc1cc2[nH]c(N3CCC(CCn4ccnc4N)CC3)nc(=O)c2c(C)c1OC	130.9 to 133.3 °C
COc1cc2[nH]c(N3CCC(CCN4CCN=C4C)CC3)nc(=O)c2c(C)c1OC	266.1 to 269.5 °C
COc1cc2[nH]c(N3CCC(CCn4ccnc4N)CC3)nc(=O)c2c(OC)c1OC	252.4 to 253.2 °C
COc1cc2[nH]c(N3CCN(C4=NCCN4C)CC3)nc(=O)c2c(OC)c1OC (as salt: HCl)	181.6 to 188.8 °C
COc1cc2[nH]c(N3CCN(c4ccccn4)CC3)nc(=O)c2c(C)c1OC (as salt: HCl) [Example 40, 6,7-Dimethoxy-5-meth-yl-2-(4-pyridin-2-yl-pipe-razin-1-yl)-1H-quina-zolin-4-one]	286.6 to 293.1 °C
COc1cc2[nH]c(N3CCN(c4cc(C)ccn4)CC3)nc(=O)c2c(C)c1OC (as salt: HCl) [Example 43, 6,7-Dimethoxy-5-meth-yl-2-[4-(4-methyl-py-ridin-2-yl)-piperazin-1-yl]-1H-quina-zolin-4-one]	277.7 to 280 °C
COc1cc2c(cc1OC)CN(c1nc(=O)c3c(OC)c(OC)c(OC)cc3[nH]1)CC2 (as salt: HCl) [Example 104, 2-(6,7-Dimethoxy-3,4-di-hydro-1H-isoquinolin-2-yl)-5,6,7-tri-methoxy-1H-quinazolin-4-one]	267 to 270 °C
COc1cc2c(cc1OC)CN(c1nc(=O)c3c(OC(C)C)c(OC)c(OC)cc3[nH]1)CC2 (as salt: HCl) [Example 107, 2-(6,7-Dimethoxy-3,4-di-hydro-1H-isoquinolin-2-yl)-5-iso-propoxy-6,7-di-methoxy-1H-quina-zolin-4-one]	253.3 to 261.9 °C
CCOc1c(OC)c(OC)cc2[nH]c(N3CCc4cc(OC)c(OC)cc4C3)nc(=O)c12 (as salt: HCl) [Example 109, 2-(6,7-Dimethoxy-3,4-di-hydro-1H-isoquinolin-2-yl)-5-eth-oxy-6,7-di-methoxy-1H-quinazolin-4-one]	218.5 to 221 °C
COc1cc2c(cc1OC)CN(c1nc(=O)c3c(O)c(OC)c(OC)cc3[nH]1)CC2 (as salt: HCl) [Example 110, 2-(6,7-Dimethoxy-3,4-di-hydro-1H-isoquinolin-2-yl)-5-hy-droxy-6,7-di-methoxy-1H-quinazolin-4-one]	255 to 259 °C
COc1cc2c(cc1OC)CN(c1nc(=O)c3c(C(C)C)c(OC)c(OC)cc3[nH]1)CC2 (as salt: HCl) [Example 119, 2-(6,7-Dimethoxy-3,4-di-hydro-1H-isoquinolin-2-yl)-5-iso-propyl-6,7-di-methoxy-1H-quina-zolin-4-one]	243 to 244 °C
COc1cc2c(cc1OC)CN(c1nc(=O)c3c(C)c(OC)c(OC)cc3[nH]1)CC2 (as salt: HCl) [Example 121, 2-(6,7-Dimethoxy-3,4-di-hydro-1H-isoquinolin-2-yl)-6,7-di-methoxy-5-meth-yl-1H-quinazolin-4-one]	260 to 268 °C
COc1cc2[nH]c(N3CCc4c(ncnc4N4CCOCC4)C3)nc(=O)c2c(OC)c1OC (as salt: HCl) [Example 135, 5,6,7-Trimethoxy-2-(4-morpho-lin-4-yl-5,8-di-hydro-6H-pyrido[3,4-d]py-rimidin-7-yl)-1H-quina-zolin-4-one]	190 to 192 °C
